# Measurements: PubChem BioAssay (NCI)
#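 These data come from cells grown in 96-well plates and exposed to compound for 48 hours at five concentrations. The concentration for 50% growth inhibition is given as GI50. Definition used: TGI = concentration required for complete inhibition of growth.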
# How the values were obtained:
# Experiment in all cases: growth of human tumour cells (NCI), 48 h
# NCI-H226 lung = test system: NCI-H226 lung
# IGROV1 ovarian = test system: IGROV1 ovarian
# UO-31 renal = test system: UO-31 renal
# COLO 205 colon = test system: COLO 205 colon
# U251 CNS = test system: U251 CNS
# EKVX NSCLC = test system: EKVX NSCLC
# CCRF-CEM leukemia = test system: CCRF-CEM leukemia
# SK-MEL-28 melanoma = test system: SK-MEL-28 melanoma
# DU-145 prostate = test system: DU-145 prostate
# HT29 colon = test system: HT29 colon
# UACC-62 melanoma = test system: UACC-62 melanoma
# OVCAR-4 ovarian = test system: OVCAR-4 ovarian
# LOX IMVI melanoma = test system: LOX IMVI melanoma
# T-47D breast = test system: T-47D breast
# CAKI-1 renal = test system: CAKI-1 renal
# NCI/ADR-RES ovarian = test system: NCI/ADR-RES ovarian
# SF-539 CNS = test system: SF-539 CNS
# NCI-H522 lung = test system: NCI-H522 lung
# HL-60(TB) leukemia = test system: HL-60(TB) leukemia
# OVCAR-5 ovarian = test system: OVCAR-5 ovarian
# SK-MEL-2 melanoma = test system: SK-MEL-2 melanoma
# MCF7 breast = test system: MCF7 breast
# M14 melanoma = test system: M14 melanoma
# NCI-H23 lung = test system: NCI-H23 lung
# HCT-116 colon = test system: HCT-116 colon
# ACHN renal = test system: ACHN renal
# NCI-H460 lung = test system: NCI-H460 lung
# SK-OV-3 ovarian = test system: SK-OV-3 ovarian
# SF-268 CNS = test system: SF-268 CNS
# A549 NSCLC = test system: A549 NSCLC
# RPMI-8226 leukemia = test system: RPMI-8226 leukemia
# MALME-3M melanoma = test system: MALME-3M melanoma
# HCC-2998 colon = test system: HCC-2998 colon
# KM12 colon = test system: KM12 colon
# MDA-MB-435 = test system: MDA-MB-435
# BT-549 breast = test system: BT-549 breast
# HOP-92 NSCLC = test system: HOP-92 NSCLC
# 786-0 renal = test system: 786-0 renal
# A498 renal = test system: A498 renal
# UACC-257 melanoma = test system: UACC-257 melanoma
# RXF 393 renal = test system: RXF 393 renal
# SW-620 colon = test system: SW-620 colon
# K-562 leukemia = test system: K-562 leukemia
# SN12C renal = test system: SN12C renal
# HOP-62 NSCLC = test system: HOP-62 NSCLC
# HCT-15 colon = test system: HCT-15 colon
# SR leukemia = test system: SR leukemia
# TK-10 renal = test system: TK-10 renal
# SNB-19 CNS = test system: SNB-19 CNS
# MOLT-4 leukemia = test system: MOLT-4 leukemia
# SF-295 CNS = test system: SF-295 CNS
# SNB-75 CNS = test system: SNB-75 CNS
# HS 578T breast = test system: HS 578T breast
# OVCAR-8 ovarian = test system: OVCAR-8 ovarian
# PC-3 prostate = test system: PC-3 prostate
# MDA-MB-231 breast = test system: MDA-MB-231 breast
compound,measurement,setting,value
CS(=O)(=O)Nc1cc(-c2ccc3ncc(C#N)c(NCc4ccccc4O)c3c2)cnc1Cl,GI50,NCI-H226 lung,908 nM
same,TGI,NCI-H226 lung,32200 nM
same,GI50,IGROV1 ovarian,229 nM
same,TGI,IGROV1 ovarian,1290 nM
same,GI50,UO-31 renal,417 nM
same,TGI,UO-31 renal,> 25900 nM
same,GI50,COLO 205 colon,674 nM
same,TGI,COLO 205 colon,2260 nM
same,GI50,U251 CNS,300 nM
same,GI50,EKVX NSCLC,1200 nM
same,TGI,EKVX NSCLC,7100 nM
same,GI50,CCRF-CEM leukemia,243 nM
same,TGI,CCRF-CEM leukemia,> 100000 nM
same,GI50,SK-MEL-28 melanoma,387 nM
same,TGI,SK-MEL-28 melanoma,7380 nM
same,GI50,DU-145 prostate,613 nM
same,TGI,DU-145 prostate,12400 nM
same,GI50,HT29 colon,1090 nM
same,TGI,HT29 colon,8630 nM
same,GI50,UACC-62 melanoma,282 nM
same,TGI,UACC-62 melanoma,2580 nM
same,GI50,OVCAR-4 ovarian,468 nM
same,TGI,OVCAR-4 ovarian,6410 nM
same,GI50,LOX IMVI melanoma,397 nM
same,TGI,LOX IMVI melanoma,2180 nM
same,GI50,T-47D breast,122 nM
same,TGI,T-47D breast,4970 nM
same,GI50,CAKI-1 renal,325 nM
same,TGI,CAKI-1 renal,2910 nM
same,GI50,NCI/ADR-RES ovarian,3090 nM
same,TGI,NCI/ADR-RES ovarian,> 100000 nM
same,GI50,SF-539 CNS,400 nM
same,TGI,SF-539 CNS,3200 nM
same,GI50,NCI-H522 lung,460 nM
same,TGI,NCI-H522 lung,6260 nM
same,GI50,HL-60(TB) leukemia,808 nM
same,TGI,HL-60(TB) leukemia,21700 nM
same,GI50,OVCAR-5 ovarian,1330 nM
same,TGI,OVCAR-5 ovarian,19000 nM
same,GI50,SK-MEL-2 melanoma,175 nM
same,TGI,SK-MEL-2 melanoma,554 nM
same,GI50,MCF7 breast,288 nM
same,TGI,MCF7 breast,9270 nM
same,GI50,M14 melanoma,532 nM
same,TGI,M14 melanoma,10900 nM
same,GI50,NCI-H23 lung,600 nM
same,TGI,NCI-H23 lung,15800 nM
same,GI50,HCT-116 colon,408 nM
same,TGI,HCT-116 colon,2960 nM
same,GI50,ACHN renal,1700 nM
same,TGI,ACHN renal,> 63000 nM
same,GI50,NCI-H460 lung,1420 nM
same,TGI,NCI-H460 lung,18400 nM
same,GI50,SK-OV-3 ovarian,612 nM
same,TGI,SK-OV-3 ovarian,3680 nM
same,GI50,SF-268 CNS,248 nM
same,TGI,SF-268 CNS,3120 nM
same,GI50,A549 NSCLC,1960 nM
same,TGI,A549 NSCLC,13000 nM
same,GI50,RPMI-8226 leukemia,609 nM
same,TGI,RPMI-8226 leukemia,3390 nM
same,GI50,MALME-3M melanoma,184 nM
same,TGI,MALME-3M melanoma,1150 nM
same,GI50,HCC-2998 colon,745 nM
same,TGI,HCC-2998 colon,6510 nM
same,GI50,KM12 colon,652 nM
same,TGI,KM12 colon,7060 nM
same,GI50,MDA-MB-435,539 nM
same,TGI,MDA-MB-435,9850 nM
same,GI50,BT-549 breast,167 nM
same,TGI,BT-549 breast,1340 nM
same,GI50,HOP-92 NSCLC,117 nM
same,TGI,HOP-92 NSCLC,725 nM
same,GI50,786-0 renal,693 nM
same,TGI,786-0 renal,> 100000 nM
same,GI50,A498 renal,227 nM
same,TGI,A498 renal,835 nM
same,GI50,UACC-257 melanoma,736 nM
same,TGI,UACC-257 melanoma,7060 nM
same,GI50,RXF 393 renal,212 nM
same,TGI,RXF 393 renal,1280 nM
same,GI50,SW-620 colon,470 nM
same,TGI,SW-620 colon,6960 nM
same,GI50,K-562 leukemia,465 nM
same,TGI,K-562 leukemia,> 100000 nM
same,GI50,SN12C renal,450 nM
same,TGI,SN12C renal,> 65000 nM
same,GI50,HOP-62 NSCLC,480 nM
same,TGI,HOP-62 NSCLC,13300 nM
same,GI50,HCT-15 colon,516 nM
same,TGI,HCT-15 colon,12000 nM
same,GI50,SR leukemia,231 nM
same,TGI,SR leukemia,> 100000 nM
same,GI50,TK-10 renal,375 nM
same,TGI,TK-10 renal,3420 nM
same,GI50,SNB-19 CNS,507 nM
same,TGI,SNB-19 CNS,15100 nM
same,GI50,MOLT-4 leukemia,418 nM
same,TGI,MOLT-4 leukemia,> 100000 nM
same,GI50,SF-295 CNS,681 nM
same,TGI,SF-295 CNS,5190 nM
same,GI50,SNB-75 CNS,< 37.8 nM
same,TGI,SNB-75 CNS,743 nM
same,GI50,HS 578T breast,118 nM
same,TGI,HS 578T breast,612 nM
same,GI50,OVCAR-8 ovarian,718 nM
same,TGI,OVCAR-8 ovarian,16800 nM
same,GI50,PC-3 prostate,531 nM
same,TGI,PC-3 prostate,13200 nM
same,GI50,MDA-MB-231 breast,585 nM
same,TGI,MDA-MB-231 breast,4040 nM
